In brackets after ≈: the same amount, converted by molar mass.
What was measured:
Streptococcus sp. = assay: in vitro antibacterial evaluation, MIC by broth dilution; type: cell-based; settings: broth dilution, 18 hours at 35° C.
Outline: (§1)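 Step 1: dilute antibiotic across 64-0.06 μg/mL in Muller-Hinton II […]. Step 2: inoculate at 5×10^5 CFU/mL.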

Enterococcus sp. = assay: as above; type: cell-based; settings: broth dilution, 18 hours at 35° C.
Outline: as §1

Staphylococcus sp. = assay: as above; type: cell-based; settings: broth dilution, 18 hours at 35° C.
Outline: as §1

[1] = anatomic pathology (histopathology of heart and kidney) in mice; type: in vivo; settings: CD-1 mice, 20 mg/kg intravenously daily for 9 days, necropsy day 10, microscopic histopathology
Experimental: Samples of tissues from necropsied mice were formalin-fixed, paraffin-embedded, sectioned, stained with hematoxylin and eosin, and examined microscopically. Histopathologic findings were recorded. These findings were subjectively graded on a scale corresponding to slight, mild, moderate, marked and severe as compared to untreated controls.

Escherichia coli = assay: in vitro antibacterial evaluation, MIC by broth dilution; type: cell-based; settings: 18 hours at 35° C.
[2] = system: Staphylococcus aureus-SMITH (GC 4543); assay: acute lethal infection in mice; type: in vivo; settings: acute lethal infection, female CD-1 mice, intraperitoneal challenge, intravenous 30 min. after infection, 7 day survival
Outline: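 Intraperitoneal challenge of female CD-1 mice with a bacterial dose lethal to untreated animals within 24-48 hr; single iv treatment 30 min later, 5 mice per dose level. Survival is scored at day 7 and pooled from three experiments to give the median effective dose.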

## CC(C1CCCCC1)C1NC(=O)CNC(=O)C(CO)NC(=O)C(C(O)C2CNC(=N)N2C2OC(CO)C(O)C(O)C2O)NC(=O)C(C(O)C2CNC(=N)N2)NC(=O)C(Cc2ccc(OC3OC(CO)C(OC4OC5COC6(OC5C(O)C4O)C4CC5CC(C4)CC6C5)C(O)C3O)cc2)NC1=O (stereo not drawn) [Example 221, Cyclo[3-cyclohexyl-2-aminobutanoyl-O-[4-O-[4,6-O-(2-adamantylidene)hexopyranosyl]hexopyranosyl]tyrosyl-3-(2-iminoimidazolidin-4-yl)seryl-3-(3-hexopyranosyl-2-iminoimidazolidin-4-yl)serylserylglycyl]]
Streptococcus sp.
  MIC Streptococcus agalactiae (GC 4564): <0.12 µg/mL
  MIC Streptococcus pneumoniae (ATCC 6301): <0.12 µg/mL
  MIC Streptococcus pneumoniae (GC 1894): <0.12 µg/mL
  MIC Streptococcus pneumoniae (GC 4565): <0.12 µg/mL
  MIC Streptococcus pyogenes (GC 4563): <0.12 µg/mL
Streptococcus sp.; inoculum 5×10^5 CFU/mL, strain ATCC 6301
  MIC Streptococcus pneumoniae (ATCC 6301): <0.12 µg/mL
Streptococcus sp.; inoculum 5×10^5 CFU/mL, strain GC 1894
  MIC Streptococcus pneumoniae (GC 1894): <0.12 µg/mL
Streptococcus sp.; inoculum 5×10^5 CFU/mL, strain GC 4563
  MIC Streptococcus pyogenes (GC 4563): <0.12 µg/mL
Streptococcus sp.; inoculum 5×10^5 CFU/mL, strain GC 4564
  MIC Streptococcus agalactiae (GC 4564): <0.12 µg/mL
Streptococcus sp.; inoculum 5×10^5 CFU/mL, strain GC 4565
  MIC Streptococcus pneumoniae (GC 4565): <0.12 µg/mL
Enterococcus sp.
  MIC Enterococcus avium (GC 4558): 2 µg/mL (≈ 1.4 µM)
  MIC Enterococcus faecalis (ATCC 29212): 2 µg/mL (≈ 1.4 µM)
  MIC Enterococcus faecalis (GC 2242): 2 µg/mL (≈ 1.4 µM)
  MIC Enterococcus faecalis (GC 2691): 2 µg/mL (≈ 1.4 µM)
  MIC Enterococcus faecalis (GC 3059): 1 µg/mL (≈ 0.698 µM)
  MIC Enterococcus faecalis (GC 4552): 2 µg/mL (≈ 1.4 µM)
  MIC Enterococcus faecalis (GC 4553): 2 µg/mL (≈ 1.4 µM)
  MIC Enterococcus faecalis (GC 4554): 2 µg/mL (≈ 1.4 µM)
  MIC Enterococcus faecalis (GC 6189): 1 µg/mL (≈ 0.698 µM)
  MIC Enterococcus faecium (GC 2243): 2 µg/mL (≈ 1.4 µM)
  MIC Enterococcus faecium (GC 4556): 2 µg/mL (≈ 1.4 µM)
  MIC Enterococcus faecium (GC 4557): 1 µg/mL (≈ 0.698 µM)
Enterococcus sp.; inoculum 5×10^5 CFU/mL, strain ATCC 29212
  MIC Enterococcus faecalis (ATCC 29212): 2 µg/mL (≈ 1.4 µM)
Enterococcus sp.; inoculum 5×10^5 CFU/mL, strain GC 2242
  MIC Enterococcus faecalis (GC 2242): 2 µg/mL (≈ 1.4 µM)
Enterococcus sp.; inoculum 5×10^5 CFU/mL, strain GC 2243
  MIC Enterococcus faecium (GC 2243): 2 µg/mL (≈ 1.4 µM)
Enterococcus sp.; inoculum 5×10^5 CFU/mL, strain GC 2691
  MIC Enterococcus faecalis (GC 2691): 2 µg/mL (≈ 1.4 µM)
Enterococcus sp.; inoculum 5×10^5 CFU/mL, strain GC 3059
  MIC Enterococcus faecalis (GC 3059): 1 µg/mL (≈ 0.698 µM)
Enterococcus sp.; inoculum 5×10^5 CFU/mL, strain GC 4552
  MIC Enterococcus faecalis (GC 4552): 2 µg/mL (≈ 1.4 µM)
Enterococcus sp.; inoculum 5×10^5 CFU/mL, strain GC 4553
  MIC Enterococcus faecalis (GC 4553): 2 µg/mL (≈ 1.4 µM)
Enterococcus sp.; inoculum 5×10^5 CFU/mL, strain GC 4554
  MIC Enterococcus faecalis (GC 4554): 2 µg/mL (≈ 1.4 µM)
Enterococcus sp.; inoculum 5×10^5 CFU/mL, strain GC 4556
  MIC Enterococcus faecium (GC 4556): 2 µg/mL (≈ 1.4 µM)
Enterococcus sp.; inoculum 5×10^5 CFU/mL, strain GC 4557
  MIC Enterococcus faecium (GC 4557): 1 µg/mL (≈ 0.698 µM)
Enterococcus sp.; inoculum 5×10^5 CFU/mL, strain GC 4558
  MIC Enterococcus avium (GC 4558): 2 µg/mL (≈ 1.4 µM)
Enterococcus sp.; inoculum 5×10^5 CFU/mL, strain GC 6189
  MIC Enterococcus faecalis (GC 6189): 1 µg/mL (≈ 0.698 µM)
Staphylococcus sp.; strain ATCC 29213
  MIC Staphylococcus aureus (ATCC 29213): 1 µg/mL (≈ 0.698 µM)
Staphylococcus sp.; strain GC 1131
  MIC Staphylococcus aureus (GC 1131): 2 µg/mL (≈ 1.4 µM)
Staphylococcus sp.; strain GC 3051
  MIC Staphylococcus aureus (GC 3051): 2 µg/mL (≈ 1.4 µM)
Staphylococcus sp.; strain GC 3053
  MIC Staphylococcus aureus (GC 3053): 1 µg/mL (≈ 0.698 µM)
Staphylococcus sp.; strain GC 4541
  MIC Staphylococcus aureus (GC 4541): 2 µg/mL (≈ 1.4 µM)
Staphylococcus sp.; strain GC 4542
  MIC Staphylococcus aureus (GC 4542): 2 µg/mL (≈ 1.4 µM)
Staphylococcus sp.; strain GC 4543
  MIC Staphylococcus aureus-SMITH (GC 4543): 2 µg/mL (≈ 1.4 µM)
Staphylococcus sp.; strain GC 4544
  MIC Staphylococcus aureus (GC 4544): 2 µg/mL (≈ 1.4 µM)
Staphylococcus sp.; strain GC 4545
  MIC Staphylococcus aureus (GC 4545): 2 µg/mL (≈ 1.4 µM)
Staphylococcus sp.; strain GC 4546
  MIC Staphylococcus haemolyticus (GC 4546): 2 µg/mL (≈ 1.4 µM)
Staphylococcus sp.; strain GC 4547
  MIC Coagulase Negative Staphylococcus (GC 4547): 2 µg/mL (≈ 1.4 µM)
Staphylococcus sp.; strain GC 4548
  MIC Coagulase Negative Staphylococcus (GC 4548): 1 µg/mL (≈ 0.698 µM)
Staphylococcus sp.; strain GC 4549
  MIC Coagulase Negative Staphylococcus (GC 4549): 1 µg/mL (≈ 0.698 µM)
Staphylococcus sp.; strain GC 4551
  MIC Coagulase Negative Staphylococcus (GC 4551): 2 µg/mL (≈ 1.4 µM)
[1]
  Anatomical Pathology (Day 10), Heart: 0
  Anatomical Pathology (Day 10), Kidney: 0
Escherichia coli
  MIC Escherichia coli (ATCC 25922): 64 µg/mL (≈ 44.6 µM)
  MIC Escherichia coli (GC 4559): 32 µg/mL (≈ 22.3 µM)
  MIC Escherichia coli (GC 4560): 2 µg/mL (≈ 1.4 µM)
[2]
  median effective dose (ED50), Staphylococcus aureus-SMITH (GC 4543): 0.03 mg/kg

From patent publication US6914045B2, “Glycopeptide antibiotics” (Wyeth Holdings Corporation, priority 2001, dated 2005)
